Measurements taken from patent EP0971601B1, “DECAFFEINATED MATE EXTRACTS AND THE USE THEREOF” (Sensient Flavors Italy S.R.L., priority 1997, dated 1998).
≈ marks a conversion by molar mass, not a printed value.

What was measured:
[1] = DPPH stable free radical quenching (loss in absorbance at 517 nm); type: biochemical; conditions: methanol solution of DPPH, absorbance 517 nm
From the text: The activity of the extract in quenching the stable free radical DPPH through hydrogen transferring reaction, has been tested by monitoring the loss in absorbance at 517 nm of a methanol solution of DPPH [18] in the presence and the absence of increasing concentrations of Maté extract.

rat erythrocytes (RBC) = test: UVB-induced lysis of erythrocytes (turbidimetric determination at 710 nm); type: cell-based; conditions: Erythrocyte, light or radiation study, 1.5 h, determined at 90 min irradiation, read-out: IC50, UVB-induced hemolysis
Experimental: • Fig.1 - HPLC profile of the decaffeinated aqueous extract of Maté. Chromatographic conditions: reverse phase column LC-18; mobile phase: linear gradient of 100% A (0.0127 N H3PO4/CH3CN/Ethylacetate 96.5'/3/0.5) to 30% B (CH3CN) in 30 min; flow rate: 1 ml/min; detection: UV-DAD 330 nm. […] Experimental conditions: Finnigan LCQ mass spectrometer; reverse phase column LC-18; mobile phase: linear gradient of 100% A (95% ammonium formiate / 5% CH3CN, pH 4.5 with HCOOH) to 30% B (95% CH3CN / 5% ammonium formiate, pH 4.5 with HCOOH) in 30 min; flow rate: 1 ml/min; negative ion detection. […] Values are the means ± S.D. of 5 determinations. • Fig.10 - Protective effect of decaffeinated aqueous extract of Maté on UVB-induced hemolysis. Red blood cells (0.2% suspensions) were exposed to UVB radiation for 210 min in the absence and in presence of different concentrations of decaffeinated aqueous extract of Maté; percentage hemolysis was turbidimetrically determined at 710 nm at 30 min intervals. Values are the means ± S.D. of 5 determinations.
Finally we evaluated in a cellular model (0.2% erythrocyte suspensions) the protective effect of the decaffeinated aqueous extract of Matè on the peroxidative stress induced by UVB exposure (0.4-4 J/cm^2), and monitoring the time-course of hemolysis (turbidimetric determination at 710 nm) at 30 min intervals.

O=C1O[C@H]([C@@H](O)CO)C(O)=C1O [ascorbic acid]
IC50, quenching DPPH radical [1]: 19 µg/mL (≈ 108 µM)

vitamin E
IC50, quenching DPPH radical [1]: 19 µg/mL

O=C(/C=C/c1ccc(O)c(O)c1)O[C@@H]1C[C@](O)(C(=O)O)C[C@@H](O)[C@H]1O [Chlorogenic acid, 3-O-caffeoyl quinic acid]
IC50 (rat erythrocytes (RBC)): 3.2 µg/mL (≈ 9.03 µM)
